Measurements published in patent US20180051132A1, “ELASTOMER COUPLED WITH BIOACTIVE FATTY ACID” (University of Pittsburgh - Of the Commonwealth System of …, priority 2016, published 2018).

Test system: sheep vascular endothelial cell (SVEC)
Experiment: SVEC proliferation/cytotoxicity, CellTiterBlue assay
Format: cell-based
Settings: without growth factors
Protocol: The cell media used was the EGM-2 Bullet Kit (CC-3162) from Lonza. It consists of 500 mL of basal media, antibiotics GA-1000 (Gentamicin, Amphotecerin-B), FBS (Fetal Bovine Serum) 10 mL, and a kit of growth factors (VEGF, hFGF-B, R3-IGF-1, Ascorbic Acid, Heparin). • In vitro viability assay:Live/dead assay • In vitro cytotoxicity(biocompatibility)/proliferation assay: CellTiterBlue® assay • This in vitro test was to find the optimal linoleic acid content in the material. Cells were cultured in different concentration of LA. […]
The fluorescence of live cells were measured at three time points:1, 3, 5 days. […] Fluorescence was recorded triple times for each well at 560 nm/590 nm excitation/emission.

CCCCC/C=C\C/C=C\CCCCCCCC(=O)O [LA, linoleic acid]
SVEC proliferation (36 nM LA): higher proliferation than the cells in the positive control medium | SVEC proliferation (360 nM LA): higher proliferation than the cells in the positive control medium
